Reference: ChEMBL document CHEMBL3885881, “DrugMatrix”

Species on record: Rattus norvegicus
Experiment: DrugMatrix - Regimen: Daily Repeat
Assay type: toxicity, organism-based, Sprague-Dawley
Parameters: regimen Daily Repeat, gender Male, age 6-8 weeks
Settings: in vivo, po, 750 mg/kg, route oral GAVAGE, dose level High, vehicle .5 % CMC; for ABSOLUTE BASOPHIL / ABSOLUTE EOSINOPHIL / ABSOLUTE LYMPHOCYTE / ABSOLUTE MONOCYTE / ABSOLUTE SEGMENTED NEUTROPHIL / BASOPHIL / EOSINOPHIL / ERYTHROCYTE COUNT / HEMATOCRIT / HEMOGLOBIN / LEUKOCYTE COUNT / LYMPHOCYTE / MEAN CORPUSCULAR HEMOGLOBIN / MEAN CORPUSCULAR HEMOGLOBIN CONCENTRATION / MEAN CORPUSCULAR VOLUME / MONOCYTE / NEUTROPHIL / NUCLEATED RED BLOOD CELLS / PLATELET COUNT: tissue Blood; for ALANINE AMINOTRANSFERASE / ALBUMIN / ALKALINE PHOSPHATASE / ASPARTATE AMINOTRANSFERASE / BLOOD UREA NITROGEN / CARBON DIOXIDE / CHOLESTEROL / CREATINE PHOSPHOKINASE / CREATININE / GLUCOSE / LACTATE DEHYDROGENASE / LIPASE / PHOSPHORUS / SODIUM / TOTAL BILIRUBIN / TOTAL PROTEIN / URIC ACID: tissue Plasma

`CC(C)(C)c1ccc(C(O)CCCN2CCC(C(O)(c3ccccc3)c3ccccc3)CC2)cc1` (configuration not stated) [TERFENADINE] was tested, and the “ABSOLUTE BASOPHIL” value (72 h, time 3 day) was 0 CELLS/uL, the “ABSOLUTE EOSINOPHIL” value (72 h, time 3 day) was 0 CELLS/uL and the “ABSOLUTE LYMPHOCYTE” value (72 h, time 3 day) was 14273 CELLS/uL. The “ABSOLUTE MONOCYTE” value (72 h, time 3 day) was 481.67 CELLS/uL, the “ABSOLUTE SEGMENTED NEUTROPHIL” value (72 h, time 3 day) was 1312 CELLS/uL and the BASOPHIL (72 h, time 3 day) was 0%. The EOSINOPHIL (72 h, time 3 day) was 0%, the “ERYTHROCYTE COUNT” value (72 h, time 3 day) was 6.18 x10E6/uL and the HEMATOCRIT (72 h, time 3 day) was 38.5%. For the same compound, the HEMOGLOBIN (72 h, time 3 day) was 14.53 G/DL, the “LEUKOCYTE COUNT” value (72 h, time 3 day) was 16.07 x10E3/uL and the LYMPHOCYTE (72 h, time 3 day) was 88.67%. The “MEAN CORPUSCULAR HEMOGLOBIN” value (72 h, time 3 day) was 23.5 pg, the “MEAN CORPUSCULAR HEMOGLOBIN CONCENTRATION” value (72 h, time 3 day) was 37.77 G/DL and the “MEAN CORPUSCULAR VOLUME” value (72 h, time 3 day) was 62.27 fL. For the same compound, the MONOCYTE (72 h, time 3 day) was 3%, the NEUTROPHIL (72 h, time 3 day) was 8.33% and the “NUCLEATED RED BLOOD CELLS” value (72 h, time 3 day) was 0 /100WBC. For the same compound, the “PLATELET COUNT” value (72 h, time 3 day) was 1171.33 x10E3/uL, the “ALANINE AMINOTRANSFERASE” value (72 h, time 3 day) was 99 u/L and the ALBUMIN (72 h, time 3 day) was 4.33 G/DL. For the same compound, the “ALKALINE PHOSPHATASE” value (72 h, time 3 day) was 343.33 u/L, the “ASPARTATE AMINOTRANSFERASE” value (72 h, time 3 day) was 108 u/L and the “BLOOD UREA NITROGEN” value (72 h, time 3 day) was 13.33 mg/dL. The “CARBON DIOXIDE” value (72 h, time 3 day) was 21.33 mmol/L, the CHOLESTEROL (72 h, time 3 day) was 50 mg/dL and the “CREATINE PHOSPHOKINASE” value (72 h, time 3 day) was 417.33 u/L. The CREATININE (72 h, time 3 day) was 0.18 mg/dL, the GLUCOSE (72 h, time 3 day) was 144.33 mg/dL and the “LACTATE DEHYDROGENASE” value (72 h, time 3 day) was 236.33 u/L. For the same compound, the LIPASE (72 h, time 3 day) was 8.67 u/L, the PHOSPHORUS (72 h, time 3 day) was 12.17 mg/dL and the SODIUM (72 h, time 3 day) was 145.77 MEQ/L. The “TOTAL BILIRUBIN” value (72 h, time 3 day) was 0.23 mg/dL, the “TOTAL PROTEIN” value (72 h, time 3 day) was 5.97 G/DL and the “URIC ACID” value (72 h, time 3 day) was 1.57 mg/dL. For the same compound, the “ABSOLUTE BASOPHIL” value (120 h, time 5 day) was 0 CELLS/uL, the “ABSOLUTE EOSINOPHIL” value (120 h, time 5 day) was 72 CELLS/uL and the “ABSOLUTE LYMPHOCYTE” value (120 h, time 5 day) was 15584.33 CELLS/uL. For the same compound, the “ABSOLUTE MONOCYTE” value (120 h, time 5 day) was 134.67 CELLS/uL, the “ABSOLUTE SEGMENTED NEUTROPHIL” value (120 h, time 5 day) was 2309 CELLS/uL and the BASOPHIL (120 h, time 5 day) was 0%. For the same compound, the EOSINOPHIL (120 h, time 5 day) was 0.33%, the “ERYTHROCYTE COUNT” value (120 h, time 5 day) was 6.8 x10E6/uL and the HEMATOCRIT (120 h, time 5 day) was 40.3%. For the same compound, the HEMOGLOBIN (120 h, time 5 day) was 15.4 G/DL, the “LEUKOCYTE COUNT” value (120 h, time 5 day) was 18.1 x10E3/uL and the LYMPHOCYTE (120 h, time 5 day) was 86.33%. The “MEAN CORPUSCULAR HEMOGLOBIN” value (120 h, time 5 day) was 22.7 pg, the “MEAN CORPUSCULAR HEMOGLOBIN CONCENTRATION” value (120 h, time 5 day) was 38.23 G/DL and the “MEAN CORPUSCULAR VOLUME” value (120 h, time 5 day) was 59.33 fL. The MONOCYTE (120 h, time 5 day) was 0.67%, the NEUTROPHIL (120 h, time 5 day) was 12.67% and the “NUCLEATED RED BLOOD CELLS” value (120 h, time 5 day) was 0 /100WBC. For the same compound, the “PLATELET COUNT” value (120 h, time 5 day) was 1002.67 x10E3/uL, the “ALANINE AMINOTRANSFERASE” value (120 h, time 5 day) was 124.67 u/L and the ALBUMIN (120 h, time 5 day) was 4.3 G/DL. The “ALKALINE PHOSPHATASE” value (120 h, time 5 day) was 360.33 u/L, the “ASPARTATE AMINOTRANSFERASE” value (120 h, time 5 day) was 104.67 u/L and the “BLOOD UREA NITROGEN” value (120 h, time 5 day) was 16.67 mg/dL. The “CARBON DIOXIDE” value (120 h, time 5 day) was 27.67 mmol/L, the CHOLESTEROL (120 h, time 5 day) was 55.67 mg/dL and the “CREATINE PHOSPHOKINASE” value (120 h, time 5 day) was 566 u/L. For the same compound, the CREATININE (120 h, time 5 day) was 0.26 mg/dL, the GLUCOSE (120 h, time 5 day) was 128 mg/dL and the “LACTATE DEHYDROGENASE” value (120 h, time 5 day) was 180.33 u/L. For the same compound, the LIPASE (120 h, time 5 day) was 9.67 u/L, the PHOSPHORUS (120 h, time 5 day) was 12.07 mg/dL and the SODIUM (120 h, time 5 day) was 145.6 MEQ/L. The “TOTAL BILIRUBIN” value (120 h, time 5 day) was 0.13 mg/dL, the “TOTAL PROTEIN” value (120 h, time 5 day) was 6.27 G/DL and the “URIC ACID” value (120 h, time 5 day) was 1.9 mg/dL.
